Data reported in US7056536B2, “Non-corrosive sterilant composition” (Ecolab Inc., priority 1998, dated 2006).

Test system: Bacillus cereus spores
Assay: Rate of Kill Antimicrobial Efficacy (SOP CB021-04), Formulas 1-8 with octanoic/peroctanoic acid, 40° C.
Assay type: cell-based
Conditions: on a weight basis
Method: Ecolab Microbiological Services SOP CB021-04; Rate of Kill Antimicrobial Efficacy. Following exposure to the formula and subsequent neutralization, spores were heat shocked for 13 minutes at 80° C. before plating. [table]

## CCCCCCCC(=O)OO [peroctanoic acid, peroxyoctanoic acid]
  effect on the sporicidal efficacy of 150 ppm POAA against B. cereus, compared with octanoic acid: greater effect
